The structures appear in SMILES notation. The source made the active and inactive calls.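 Rule for the calls: active = compounds giving half or more protection of infected cells from virus-caused growth loss, again on retest; inactive = the rest.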

In the experiment the test system is CEM cells HIV-1 protection, formazan growth assay. Put plainly: NCI AIDS Antiviral Assay. The following applies: for IC50: measured here: growth of uninfected CEM cells. In short, it runs like this: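 Protection of CEM cells against HIV-1 measured as cell growth via soluble formazan read-out, with five concentrations tested on both infected and uninfected cells; failure to protect may reflect toxicity.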

`CC(=O)N(C(=O)CC(=O)N1N=C(C)C(N=Nc2cccc([N+](=O)[O-])c2)C1=O)c1ccc(Cl)cc1` (centres undefined): the EC50 is over 170 µM and the IC50 turned out to be 72.4 µM.

Turning to `COc1ccc2nc3cc(Cl)ccc3c(Sc3ccc([N+](=O)[O-])cc3C)c2c1`, the EC50 is over 12.6 µM and the 50% inhibitory concentration (IC50) is over 12.6 µM.

Turning to `COc1ccc(C)cc1S(=O)(=O)c1c(Cl)cccc1[N+](=O)[O-]`, the EC50 was over 200 µM and the IC50 was over 200 µM.

As for `NC(=O)N/N=C(\C(=O)C(=O)Nc1ccc(Cl)c(C(F)(F)F)c1)c1nc2ccc(C(=O)c3ccccc3)cc2[nH]c1=O`, the EC50 is over 61.7 µM and the IC50 is over 61.7 µM.

On to `NC(CCOCCP(=O)(O)CCOCCC(N)C(=O)O)C(=O)O` (centres undefined), for which the EC50 is over 200 µM and the IC50 is over 200 µM.

Regarding `Nc1n[nH]c2c(C(=O)Nc3ccc(Cl)cc3)c(N)n(N)c(=O)c12`, the EC50 is over 200 µM and the IC50 was over 200 µM.

For the compound `Cn1c(=O)[nH]c2nncnc2c1=O`, the EC50 is over 200 µM and the concentration for half-maximal inhibition (IC50) was found to be 31.6 µM.

Consider `C=CCc1cc(OC)c2c(c1)C(OC)CC(c1ccc(OC)c(OC)c1)O2` (centres undefined), for which the EC50 was over 251 µM and the IC50 is over 251 µM.

As for `COc1ccc(CNc2nc3ccccc3nc2-c2cccs2)cc1OC`, the EC50 was over 19.1 µM and the IC50 worked out at 17 µM.

As for `CCOC(=O)C1C(c2ccc3c(c2)OCO3)c2c([nH][nH]c2=O)CC1(O)OCC` (centres undefined), the EC50 is over 200 µM and the IC50 is over 200 µM.

As to `CC(C)CCCC(C)[C@H]1CCC2C3C/C(=C\C#N)[C@H]4CCCC[C@]4(C)C3CC[C@@]21C` (some centres undefined), the EC50 is over 100 µM and the IC50 was over 100 µM.

Consider `Cc1ccc(S(=O)(=O)N(/N=C(\N)Oc2ccc(Cl)cc2)C(=N)Oc2ccc(Cl)cc2)cc1`, for which the EC50 is over 100 µM and the IC50 was over 100 µM.

For the compound `Cc1ccc(-c2cc(-c3ccccc3)c(C#N)c(=O)[nH]2)cc1`, the EC50 was over 66.1 µM and the concentration for half-maximal inhibition (IC50) is over 66.1 µM.

On to `Nc1ccn(C2CC(O)C(COP(O)(=S)OC3CC(n4ccc(N)nc4=O)OC3CO)O2)c(=O)n1` (centres undefined), for which the EC50 was over 200 µM and the concentration for half-maximal inhibition (IC50) was over 200 µM.

Consider `CC(C)CCCC(C)C1CCC2C3CC[C@H]4C[C@@H](NC(=O)C=C(c5cc(Cl)c(O)c(C(=O)O)c5)c5cc(Cl)c(O)c(C(=O)O)c5)CC[C@]4(C)C3CC[C@]12C` (some centres undefined), for which the EC50 is 56.2 µM and the half-inhibitory concentration (IC50) is 97.7 µM.

Consider `O=C(/C=C/c1ccc(Br)cc1)c1ccccc1`, for which the EC50 was over 18.2 µM and the concentration for half-maximal inhibition (IC50) was determined as 9.55 µM.

As for `Cc1c(-c2ccccc2)c(=O)oc2ccc(Cl)cc12`, the outcome was inactive.

For the compound `CNS(=O)(=O)NNS(=O)(=O)c1ccc(C)cc1`, the EC50 was over 468 µM and the IC50 came out at 145 µM.

For `Fc1c(F)c(F)c2c(c1F)CSc1nc3ccccc3n1-2`, the EC50 was over 200 µM and the IC50 is over 200 µM.

Consider `CCOC(=O)c1nc2ccccc2nc1Oc1ccc(C(=O)OC)cc1`, for which the EC50 is over 200 µM and the IC50 is over 200 µM.

`CN1CCN(CCCCN2c3ccccc3Sc3ccc(C(=O)c4ccccc4)cc32)CC1`: the EC50 was over 100 µM and the IC50 is 4.47 µM.

Take `CCSc1ccc(/C=C(\C#N)c2ccc(OCCN(CC)CC)cc2)cc1`: the EC50 is over 100 µM and the IC50 worked out at 1.2 µM.

Consider `Oc1ccc([Te]CCNCC[Te]c2ccc(O)cc2)cc1`, for which the EC50 was over 10 µM and the IC50 is 5.89 µM.

With `CC(C)(C)S(=O)OC12CC3CC(CC(C3)C1)C2` (centres undefined), the EC50 is over 708 µM and the IC50 came to 151 µM.

With `Cc1ccc(C2(O)CC(c3ccc([N+](=O)[O-])o3)=NN2C(=O)COc2ccccc2Cl)cc1` (centres undefined), the EC50 is over 1.66 µM and the IC50 was over 1.66 µM.

On to `N#Cc1c(N2CCCC2)ncn(Cc2ccccc2)c1=S`, for which the EC50 is over 200 µM and the IC50 is over 200 µM.

As to `CNCC(OB(c1ccccc1)c1ccccc1)c1ccccc1` (centres undefined), the EC50 was over 200 µM and the half-inhibitory concentration (IC50) was 60.3 µM.

Turning to `Cc1ccc(S(=O)(=O)OCC/C(=C\[Si](C)(C)C)c2ccccc2)cc1`, the outcome was inactive.

Usually EC50 stands for the midpoint of the concentration-response curve. In general, IC50 refers to the concentration needed to halve the response being measured. Low values mean higher potency, high ones lower potency.
